Results on 32 molecules are retold here after US9376418B2, “Substituted pyridine spleen tyrosine kinase (SYK) inhibitors” (Merck Sharp & Dohme Corp., priority 2012, dated 2016).

Some results are limits rather than exact numbers.

The target of this experiment is T1, recombinant human GST-SYK (Homo sapiens, UniProt P43405).
T1 construct: purchased Carna Biosciences 08-176
In words: Homogeneous Time-Resolved Fluorescence (HTRF) assay for the recombinant human Syk enzyme. The format is biochemical. The note with it: HTRF assay, recombinant human GST-SYK; IC50 given as class symbols; read-out: rhSYK Activity. An outline of the steps:
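Phosphotyrosine product from a biotinylated Syk substrate peptide was detected by HTRF (europium antibody/SA-APC, read after 30 min) following a 45-minute room-temperature reaction at 25 μM ATP, with […] preincubated 10 minutes with inhibitor.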
Consider `Cc1cc(Nc2nccc(C(F)(F)F)n2)cc(-c2ccc(N[C@H](CC(N)=O)C(=O)O)nc2)c1` [Example 7.93, N~2~-[5-(3-methyl-5-{[4-(trifluoromethyl)pyrimidin-2-yl]amino}phenyl)pyridin-2-yl]-D-asparagine], for which the IC50 is < 100 nM. Next, `Cc1cc(Nc2nccc(C(F)(F)F)n2)cc(-c2ccc(N3CCCC4(CCCCO4)C3)nc2)c1` (centres unmarked) [Example 7.116, N-{3-methyl-5-[6-(1-oxa-8-azaspiro[5.5]undec-8-yl)pyridin-3-yl]phenyl}-4-(trifluoromethyl)pyrimidin-2-amine]: 100 to 1000 nM; `Cc1cc(Nc2nccc(C(F)(F)F)n2)cc(-c2cccc(C(=O)O)n2)c1` [Example 2.13, 6-(3-methyl-5-{[4-(trifluoromethyl)pyrimidin-2-yl]amino}phenyl)pyridine-2-carboxylic acid]: < 100 nM. Next, `Cc1cc(Nc2nccc(C(F)(F)F)n2)cc(-c2ccc(N(C)CCC3OCCO3)nc2)c1` [Example 7.41, N-[3-(6-{[2-(1,3-dioxolan-2-yl)ethyl](methyl)amino}pyridin-3-yl)-5-methylphenyl]-4-(trifluoromethyl)pyrimidin-2-amine]: 100 to 1000 nM; `Cc1cc(Nc2nccc(C(F)(F)F)n2)cc(-c2ccnc(N(C)CCC3OCCO3)c2)c1` [Example 15.57, N-[3-(2-{[2-(1,3-dioxolan-2-yl)ethyl](methyl)amino}pyridin-4-yl)-5-methylphenyl]-4-(trifluoromethyl)pyrimidin-2-amine]: 100 to 1000 nM. Next, `Cc1cc(Nc2nccc(C(F)(F)F)n2)cc(-c2ccc(NCC(=O)NCC(N)=O)nc2)c1` [Example 12.7, N-[5-(3-methyl-5-{[4-(trifluoromethyl)pyrimidin-2-yl]amino}phenyl)pyridin-2-yl]glycylglycinamide]: < 100 nM. On to `Cc1cc(Nc2nccc(C(F)(F)F)n2)cc(-c2ccnc(NC3CNC(=O)C3)c2)c1` (centres unmarked) [Example 15.74, 4-{[4-(3-methyl-5-{[4-(trifluoromethyl)pyrimidin-2-yl]amino}phenyl)pyridin-2-yl]amino}pyrrolidin-2-one], for which the IC50 is < 100 nM. On to `Cc1cc(Nc2nccc(C(F)(F)F)n2)cc(-c2ccc(NC(C)(C)c3nnn[nH]3)nc2)c1` [Example 18.8, N-[3-methyl-5-(6-{[1-methyl-1-(1H-tetrazol-5-yl)ethyl]amino}pyridin-3-yl)phenyl]-4-(trifluoromethyl)pyrimidin-2-amine], for which the IC50 was < 100 nM.

With `COc1ccnc(Nc2cc(C)cc(-c3ccc(N[C@H]4CC[C@H](C(=O)O)CC4)nc3)c2)n1` [Example 2.105, trans-4-[(5-{3-[(4-methoxypyrimidin-2-yl)amino]-5-methylphenyl}pyridin-2-yl)amino]cyclohexanecarboxylic acid], the IC50 is < 100 nM.

For the molecule `COc1nc(Nc2cc(C)cc(-c3ccc(N[C@H]4CC[C@H](C(=O)O)CC4)nc3)c2)ncc1Cl` [Example 2.118, trans-4-[(5-{3-[(5-chloro-4-methoxypyrimidin-2-yl)amino]-5-methylphenyl}pyridin-2-yl)amino]cyclohexanecarboxylic acid], the IC50 was in the range of 100 to 1000 nM. As to `Cc1cc(Nc2nccc(C(F)(F)F)n2)cc(-c2ccc(N[C@@H](CCO)C(=O)O)nc2)c1` [Example 7.71, N-[5-(3-methyl-5-{[4-(trifluoromethyl)pyrimidin-2-yl]amino}phenyl)pyridin-2-yl]-L-homoserine], the IC50 is < 100 nM. Next, `Cc1cc(Nc2nccc(C(F)(F)F)n2)cc(-c2ccc(C(F)(F)F)nc2)c1` [Example 4.6, N-{3-methyl-5-[6-(trifluoromethyl)pyridin-3-yl]phenyl}-4-(trifluoromethyl)pyrimidin-2-amine]: 100 to 1000 nM; `Cc1cc(Nc2nccc(C(F)(F)F)n2)cc(-c2ccc(CC(C)(C)C(=O)O)nc2)c1` [Example 22.3, 2,2-Dimethyl-3-[5-(3-methyl-5-{[4-(trifluoromethyl)pyrimidin-2-yl]amino}phenyl)pyridin-2-yl]propanic acid]: < 100 nM; `Cc1cc(Nc2nccc(C(F)(F)F)n2)cc(-c2ccnc(C(C)(C)O)c2)c1` [Example 9.61, 2-[4-(3-methyl-5-{[4-(trifluoromethyl)pyrimidin-2-yl]amino}phenyl)pyridin-2-yl]propan-2-ol]: < 100 nM. Next, `Cc1cc(Nc2nccc(C)n2)cc(-c2cc(CCC(=O)O)ccn2)c1` [Example 2.23, 3-(2-{3-methyl-5-[(4-methylpyrimidin-2-yl)amino]phenyl}pyridin-4-yl)propanoic acid]: < 100 nM; `Cc1cc(Nc2nccc(C(F)(F)F)n2)cc(-c2ccc(NC(C)c3ccccn3)nc2)c1` (centres unmarked) [Example 7.19, N-(3-methyl-5-{6-[(1-pyridin-2-ylethyl)amino]pyridin-3-yl}phenyl)-4-(trifluoromethyl)pyrimidin-2-amine]: 100 to 1000 nM; `CCC(C)(C#N)Nc1ccc(-c2cc(C)cc(Nc3nccc(C(F)(F)F)n3)c2)cn1` (centres unmarked) [Example 18.1, 2-Methyl-2-{[5-(3-methyl-5-{[4-(trifluoromethyl)pyrimidin-2-yl]amino}phenyl)pyridin-2-yl]amino}butanenitrile]: < 100 nM.

Regarding `Cc1cc(Nc2nccc(C(F)(F)F)n2)cc(-c2ccc(CCc3noc(=O)[nH]3)nc2)c1` [Example 13.5, 3-{2-[5-(3-Methyl-5-{[4-(trifluoromethyl)pyrimidin-2-yl]amino}phenyl)pyridin-2-yl]ethyl}-1,2,4-oxadiazol-5(4H)-one], the IC50 is < 100 nM. Next, `Cc1cc(Nc2nccc(C(F)(F)F)n2)cc(-c2ccc(NC3(C(=O)O)CCC3)nc2)c1` [Example 7.78, 1-{[5-(3-methyl-5-{[4-(trifluoromethyl)pyrimidin-2-yl]amino}phenyl)pyridin-2-yl]amino}cyclobutanecarboxylic acid]: < 100 nM; `O=C(O)c1cncc(-c2cccc(Nc3nccc(C(F)(F)F)n3)c2)c1` [Example 2.73, 5-(3-{[4-(trifluoromethyl)pyrimidin-2-yl]amino}phenyl)pyridine-3-carboxylic acid]: < 100 nM; `COC(=O)CS(=O)(=O)Nc1ccc(-c2cc(C)cc(Nc3nccc(C(F)(F)F)n3)c2)cn1` [Example 8.1, Methyl {[5-(3-methyl-5-{[4-(trifluoromethyl)pyrimidin-2-yl]amino}phenyl)pyridin-2-yl]sulfamoyl}acetate]: < 100 nM. Regarding `Cc1cc(Nc2nccc(C(F)(F)F)n2)cc(-c2ccc(NCCC(=O)O)nc2)c1` [Example 7.88, N-[5-(3-methyl-5-{[4-(trifluoromethyl)pyrimidin-2-yl]amino}phenyl)pyridin-2-yl]-beta-alanine], the IC50 was < 100 nM. On to `Cc1cc(Nc2nccc(C(F)(F)F)n2)cc(-c2ccc([C@]3(O)CC[C@@H](O)CC3)nc2)c1` [Example 9.58, cis-1-[5-(3-methyl-5-{[4-(trifluoromethyl)pyrimidin-2-yl]amino}phenyl)pyridin-2-yl]cyclohexane-1,4-diol], for which the IC50 was < 100 nM. In the case of `Cc1cc(Nc2nccc(C(F)(F)F)n2)cc(-c2ccc(NC(C)(C)C#N)nc2)c1` [Example 7.114, 2-methyl-2-{[5-(3-methyl-5-{[4-(trifluoromethyl)pyrimidin-2-yl]amino}phenyl)pyridin-2-yl]amino}propanenitrile], the IC50 is < 100 nM. As to `Cc1cc(Nc2nccc(C(F)(F)F)n2)cc(-c2ccc(NCC(N)=O)nc2)c1` [Example 7.31, N~2~-[5-(3-methyl-5-{[4-(trifluoromethyl)pyrimidin-2-yl]amino}phenyl)pyridin-2-yl]glycinamide], the IC50 was < 100 nM.

As for `Cc1cc(Nc2nccc(C(F)(F)F)n2)cc(-c2ccc(C(C)(O)c3ccc(C(N)=O)cc3)nc2)c1` (centres unmarked) [Example 12.4, 4-{1-hydroxy-1-[5-(3-methyl-5-{[4-(trifluoromethyl)pyrimidin-2-yl]amino}phenyl)pyridin-2-yl]ethyl}benzamide], the IC50 was < 100 nM.

With `Cc1cc(Nc2nccc(C(F)(F)F)n2)cc(-c2ccc(CC(=O)N(C)C)nc2)c1` [Example 3.2, N,N-dimethyl-2-(5-(3-methyl-5-((4-(trifluoromethyl)pyrimidin-2-yl)amino)phenyl)pyridin-2-yl)acetamide], the IC50 was < 100 nM. Next, `Cc1cc(Nc2nccc(C(F)(F)F)n2)cc(-c2ccc(C(=O)NCc3ncc[nH]3)nc2)c1` [Example 16.53, N-(1H-imidazol-2-ylmethyl)-5-(3-methyl-5-{[4-(trifluoromethyl)pyrimidin-2-yl]amino}phenyl)pyridine-2-carboxamide]: 100 to 1000 nM; `Cc1cc(Nc2nccc(C(F)(F)F)n2)cc(-c2ccc(C(F)(F)CO)nc2)c1` [Example 2.117, 2,2-difluoro-2-[5-(3-methyl-5-{[4-(trifluoromethyl)pyrimidin-2-yl]amino}phenyl)pyridin-2-yl]ethanol]: < 100 nM. Next, `CCOC(=O)/C=C/c1ccc(-c2cc(C)cc(Nc3nccc(C(F)(F)F)n3)c2)cn1` [Example 22.1, Ethyl-3-[5-(3-methyl-5-{[4-(trifluoromethyl)pyrimidin-2-yl]amino}phenyl)pyridin-2-yl]prop-2-enoate]: 100 to 1000 nM.

For the molecule `Cc1cc(Nc2nccc(C(F)(F)F)n2)cc(-c2ccc(C(=O)NCc3ncnn3C)nc2)c1` [Example 16.27, N-[(1-methyl-1H-1,2,4-triazol-5-yl)methyl]-5-(3-methyl-5-{[4-(trifluoromethyl)pyrimidin-2-yl]amino}phenyl)pyridine-2-carboxamide], the IC50 is 100 to 1000 nM. Regarding `Cc1cc(Nc2nccc(C(F)(F)F)n2)cc(-c2ccc(-c3cn(CC(=O)O)nn3)nc2)c1` [Example 25.2, {4-[5-(3-Methyl-5-{[4-(trifluoromethyl)pyrimidin-2-yl]amino}phenyl)pyridin-2-yl]-1H-1,2,3-triazol-1-yl}acetic acid], the IC50 was < 100 nM.
